Earlier results, collected in patent US12623013B2, “Compounds, systems, and techniques for removal of peripheral amyloid beta peptide with albumin binding competitors” (Fresenius Medical Care Holdings, Inc., priority 2021, dated 2026).

Biological target: human albumin (Homo sapiens, UniProt P02768)
Conditions: read-out: binding constant to human albumin

human albumin, sequence (P02768 25-609): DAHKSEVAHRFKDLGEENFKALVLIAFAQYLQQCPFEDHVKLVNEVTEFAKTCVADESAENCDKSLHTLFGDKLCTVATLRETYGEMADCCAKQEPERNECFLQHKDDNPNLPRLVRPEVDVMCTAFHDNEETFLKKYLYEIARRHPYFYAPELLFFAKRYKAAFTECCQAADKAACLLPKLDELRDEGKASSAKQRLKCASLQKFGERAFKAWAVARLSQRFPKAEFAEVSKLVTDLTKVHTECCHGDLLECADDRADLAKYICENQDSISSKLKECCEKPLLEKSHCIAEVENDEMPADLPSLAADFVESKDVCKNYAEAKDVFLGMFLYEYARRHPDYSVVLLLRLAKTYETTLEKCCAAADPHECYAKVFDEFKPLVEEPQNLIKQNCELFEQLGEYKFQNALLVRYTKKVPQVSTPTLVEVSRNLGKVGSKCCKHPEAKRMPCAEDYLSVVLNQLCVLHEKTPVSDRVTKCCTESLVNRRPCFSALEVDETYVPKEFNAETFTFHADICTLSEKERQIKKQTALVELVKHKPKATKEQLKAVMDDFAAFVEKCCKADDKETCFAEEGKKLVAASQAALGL

Kd: ~15 nM
Substance: Ac-WWEQDRDWDFDVFGGGTP-NH2 [89D03]
